This note sets out measurements from US9035021B2, “Somatostatin analogues” (Novartis AG, priority 2001, dated 2015).

Usually IC50 stands for the point on the concentration scale where inhibition reaches its midpoint. The half-life is the time in which the quantity being followed falls by half.

One series deals with carotid artery neointima. Nature of the series: Angioplasty, rat model of balloon catheter injury. The format is in vivo. To be noted: 10 μg/kg/h continuous infusion, 14 days after balloon injury. The procedure:
Studies on angioplasty are done in the rat model of balloon catheter injury. Balloon catheterization is performed on day 0, essentially as described by Powell et al. (1989). Under Isofluorane anaesthesia, a Fogarty 2F catheter is introduced into the left common carotid artery to obtain a uniform de-endothelialization. The catheter is then removed, a ligature placed around the external carotid to prevent bleeding and the animals allowed to recover. 2 groups of 12 RoRo rats (400 g, approximately 24 weeks old) are used for the study: one control group and one group receiving Compound A and the rats are fully randomized. Compound A is administered by continuous infusion using minipumps at a rate of 10 μg/kg/h starting 2 days before balloon injury […] until the end of the study, 14 days after balloon injury. The rats are then anaesthetized with Isofluorane and perfused with 0.1 M phosphate buffered saline solution (PBS, pH 7.4) and then for 15 min. with 2.5% glutaraldehyde in phosphate buffer (pH 7.4). Carotid arteries are then excised, separated from surrounding tissue and immersed in 0.1 M cacodylate buffer (pH 7.4) containing 7% saccharose and incubated overnight at 4° C. […] The cross-sectional area of the media, neointima and the lumen are evaluated morphometrically by means of an image analysis system (MCID, Toronto, Canada).

The subject of a further series is kidney allograft. Nature of the series: Chronic allograft rejection, rat kidney allograft model. The format is in vivo. The note with it: 10 μg/kg/h infusion. The procedure:
Chronic Allograft Rejection
The kidney of a male DA (RT1^a) rat is orthotopically transplanted into a male Lewis (RT1^1) recipient. In total 24 animals are transplanted. All animals are treated with cyclosporine A at 7.5 mg/kg/day per os for 14 days starting on the day of transplantation, to prevent acute cellular rejection. Contralateral nephrectomy is not performed. Each experimental group treated with a distinct dose of Compound A or placebo comprises six animals. Starting 14 days after transplantation, the recipient animals are treated up to 112 days by infusion with Compound A or receive placebo. At 14 days after transplantation organ perfusion is measured by MRI. This is repeated at days 53-64 after transplantation and at the end of the experiment. The animals are then autopsied.

A further series addresses T1, hsst5 (Homo sapiens, UniProt P35346).
T1 construct: expressed in transfected cells
Nature of the series: Binding assay, membranes from cell lines expressing hsst5, [125I-Tyr11]-SRIF-14 radioligand. The note with it: competition binding. The procedure:
(§1) The experiments are carried out in triplicate.

The target of another series is hsst1 (Homo sapiens, UniProt P30872). Nature of the series: biochemical.
A further series has as its target T2, hsst4 (Homo sapiens, UniProt P31391).
T2 construct: expressed in transfected cells
Briefly: Binding assay, membranes from cell lines expressing hsst4, [125I-Tyr11]-SRIF-14 radioligand. The note with it: competition binding. The procedure: as §1

A further series concerns blood vessel formation. Briefly: Angiogenesis test in nude mice (SiHa and MDA MB-231 cells). The format is in vivo. To be noted: dose e.g. 0.01 to 1000 μg/kg s.c. The procedure:
Compound A also has an inhibiting effect on angiogenesis, as indicated in standard tests, e.g. in nude mice. Briefly, tumor cells (0.1 to 10×10^6 in 0.1 ml) (SiHa cells and MDA MB-231 cells prepared as disclosed in Angiogenesis, Ed. by R. Steiner, P. B. Weisz and R. Langer, 1992, Switzerland) are inoculated intracutaneously. Usually two midventral sites/mouse are injected which are located distant from the main ventral skin vessels so that the background vessel count is low. Control groups receive 0.1 ml 0.02% trypan blue in PBS. 10 days following injection, anesthetized mice are sacrificed by CO2 inhalation. The skin is mounted onto a plastic ring (40 mm diameter) for evaluation by an inverted microscope (Zeiss IM) at 12.5- and 25-fold magnification. As a measure of angiogenesis, vessels are photographed and those are counted that are directly connected with the tumor. In control animals those vessels are counted that are connected to a defined area around the injection site. This area corresponds to the mean area of the dermal tumors. The latter is determined by use of a caliper according to the equation 3.14×r^2. Compound A is administered s.c. either on the day of tumor inoculation or 3 days later. Control animals are vehicle-treated.

The next series concerns IGF-1 plasma levels. Nature of the series: IGF-1 plasma levels in vivo in male rats. The procedure: Furthermore, Compound A inhibits IGF-1 plasma levels in vivo as indicated in standard tests using male rats. Briefly, Compound A is administered by osmotic pump implanted s.c. to male rats of a Lewis strain. Blood samples are collected from the retrobulbar plexus using a short anesthesia with e.g. isoflurane.

For series [1], the target named is growth hormone secretagogue receptors (Homo sapiens, UniProt Q92847). The source says: Such receptors are disclosed by G. Muccioli et al., J. Endocrinol. 1998, 157, 99-106, by H. Ong et al., in Endocrinology 1998, 139, 432-435 and by R. G. Smith et al., Norm. Res., 1999, 3), 1-8. The binding assay to these receptors may be carried out as disclosed in J. Endocrinol. Invest. 24: RC1-RC3, 2001.

A further series concerns insulin secretion. Nature of the series: Similar assay for measuring the effect on insulin. More on the design: species or system rats. The note with it: rat, in vivo.
The target of a further series is T3, hsst3 (Homo sapiens, UniProt P32745).
T3 construct: expressed in transfected cells
Briefly: Binding assay, membranes from cell lines expressing hsst3, [125I-Tyr11]-SRIF-14 radioligand. To be noted: competition binding. The procedure: as §1

The next series deals with T4, hsst2 (Homo sapiens, UniProt P30874).
T4 construct: expressed in transfected cells
Nature of the series: Binding assay, membranes from cell lines expressing hsst2, [125I-Tyr11]-SRIF-14 radioligand. To be noted: competition binding. The procedure: as §1

The nature of a further series: Plasma half-life. To be noted: read-out: Elimination half-life. The format is in vivo. The procedure: Compound A has a beneficial plasma half-life. It has an elimination half-life between 15 and 30 hours.
Another series concerns heart allograft. Briefly: Heterotopic mouse heart allotransplantation model. The format is in vivo.
The next series deals with GH. Nature of the series: Monkey studies, inhibition of GH. The format is in vivo.
The conditions of series [2]: diabetic monkeys.
The test system of another series is cultured pituitary cells. Nature of the series: Inhibition of GH release in vitro from cultured pituitary cells. The format is cell-based, rats. To be noted: rat anterior pituitary cells, three hours, in the presence of 3×10^−10 M growth hormone releasing factor, RIA. The procedure:
For example, anterior pituitary glands from adult male rats are cut into small pieces and dispersed using 0.1% trypsin in 20 mM HEPES buffer. The dispersed cells are cultured for four days in MEM (Gibco) supplemented with 5% fetal calf serum, 5% horse serum, 1 mM NaHCO3, 2.5 nM dexamethasone, […] and 20 U/ml Pen/Strep. On the day of the experiment the attached cells are washed two times with Krebs-Ringer medium buffered with 20 mM HEPES and supplemented with 5 mM glucose and 0.2% BSA. Subsequently the cells are incubated for three hours with Compound A in the presence of 3×10^−10 M growth hormone releasing factor. The amount of growth hormone released into the medium is measured by RIA. Compound A has an IC50 of 0.4 nM in this assay.

The next series relates to growth hormone release. Briefly: Inhibition of growth hormone (GH) release in rats. The format is in vivo. To be noted: s.c., 6 h, anaesthetized rats. The procedure: Compound A inhibits the release of growth hormone (GH) in rats. Compound A is administered s.c. to anaesthetized rats. Blood is collected after decapitation 1 h after administration of the compound. The duration of action is estimated on the basis of the inhibition of basal GH secretion 6 h after drug treatment. Hormone levels are measured by RIA 1 h and 6 h after treatment. The ID50-value for the inhibition of the hormone secretion is determined graphically (log-probit) for each experiment and the resulting values are averaged logarithmically.

Another series relates to carotid artery grafts. Nature of the series: Carotid artery loop transplantation model. The format is in vivo, mice. To be noted: 50 μg/kg/h s.c. mini-pump, grafts harvested at 30 days, compared with non-treated animals. The procedure: Compound A has also been tested in a carotid artery loop transplantation model using B10.A (2R) (H-2h^2) mice as donor and B10.BR(H-2^k) mice as recipient. In brief, the donor carotid artery is transplanted paratopically as a loop into the recipient's carotid artery by an end-to-side anastomosis. A mini-pump is placed s.c. immediately after transplantation that delivers Compound A at a rate of 50 μg/kg/h. Carotid artery grafts are harvested at 30 days after transplantation to analyse vascular remodeling e.g. by morphometric analysis of Verhoeff elastin stained paraffin sections using a computer-assisted system.

*1 amine or outer side, *2 acyl side, *3 side chain or, on linkers, in order; H or OH if unused. Where a SMILES comes first, the peptide text is derived from it. Side-chain parts run from the residue outwards. [ ]: non-standard residue; d: D form. The star is where a group is joined. Ethylenediamine = C(CN[*:2])N[*:1]; Hyp = O=C(O)[C@@H]1C[C@@H](O)CN1; Phg = N[C@H](C(=O)O)c1ccccc1; CO = O=C([*:1])[*:2]; Bn = c1ccc(C*)cc1

T4 sequence (P30874 whole entry): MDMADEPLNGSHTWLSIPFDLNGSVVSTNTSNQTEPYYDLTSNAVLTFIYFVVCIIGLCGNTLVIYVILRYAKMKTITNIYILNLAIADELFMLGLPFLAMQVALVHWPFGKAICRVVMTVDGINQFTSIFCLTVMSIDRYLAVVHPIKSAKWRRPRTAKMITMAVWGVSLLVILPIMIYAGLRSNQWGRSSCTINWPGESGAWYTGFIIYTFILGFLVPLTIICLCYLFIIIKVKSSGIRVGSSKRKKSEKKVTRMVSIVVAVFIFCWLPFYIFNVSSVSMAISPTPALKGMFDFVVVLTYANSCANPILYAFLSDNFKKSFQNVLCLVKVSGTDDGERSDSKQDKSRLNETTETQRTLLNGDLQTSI
growth hormone secretagogue receptors, sequence (Q92847 whole entry): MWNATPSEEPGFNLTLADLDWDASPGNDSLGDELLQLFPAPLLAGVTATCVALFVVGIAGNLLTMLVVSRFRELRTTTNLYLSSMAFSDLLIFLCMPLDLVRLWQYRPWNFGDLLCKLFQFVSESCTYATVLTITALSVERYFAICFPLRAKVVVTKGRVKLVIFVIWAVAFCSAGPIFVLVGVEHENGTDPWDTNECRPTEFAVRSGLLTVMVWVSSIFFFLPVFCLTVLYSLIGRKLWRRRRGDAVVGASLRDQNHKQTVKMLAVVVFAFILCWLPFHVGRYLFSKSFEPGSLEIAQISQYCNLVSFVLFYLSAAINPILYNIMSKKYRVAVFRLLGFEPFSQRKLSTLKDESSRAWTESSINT
T2 sequence (P31391 whole entry): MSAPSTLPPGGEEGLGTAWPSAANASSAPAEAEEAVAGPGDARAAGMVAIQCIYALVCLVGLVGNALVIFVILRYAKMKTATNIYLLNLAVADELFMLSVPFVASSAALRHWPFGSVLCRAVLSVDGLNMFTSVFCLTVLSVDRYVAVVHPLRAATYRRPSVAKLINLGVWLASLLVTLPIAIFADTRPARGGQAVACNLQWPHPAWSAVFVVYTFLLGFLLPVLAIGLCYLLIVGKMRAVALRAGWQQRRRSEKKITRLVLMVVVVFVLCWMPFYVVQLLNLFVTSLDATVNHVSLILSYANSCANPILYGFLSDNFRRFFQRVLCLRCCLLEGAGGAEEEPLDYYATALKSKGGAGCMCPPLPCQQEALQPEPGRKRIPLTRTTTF
T3 sequence (P32745 whole entry): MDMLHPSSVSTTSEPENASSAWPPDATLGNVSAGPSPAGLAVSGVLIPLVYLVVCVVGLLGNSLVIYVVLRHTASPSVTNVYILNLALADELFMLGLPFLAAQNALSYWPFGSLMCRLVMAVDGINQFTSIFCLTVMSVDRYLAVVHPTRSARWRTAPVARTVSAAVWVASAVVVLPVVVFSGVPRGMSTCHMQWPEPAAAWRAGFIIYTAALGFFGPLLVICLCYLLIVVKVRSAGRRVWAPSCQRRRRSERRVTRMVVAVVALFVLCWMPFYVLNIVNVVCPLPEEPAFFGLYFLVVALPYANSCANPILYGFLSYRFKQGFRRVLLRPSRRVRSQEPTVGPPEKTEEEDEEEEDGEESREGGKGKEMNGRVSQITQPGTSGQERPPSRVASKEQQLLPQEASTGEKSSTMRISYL
T1 sequence (P35346 whole entry): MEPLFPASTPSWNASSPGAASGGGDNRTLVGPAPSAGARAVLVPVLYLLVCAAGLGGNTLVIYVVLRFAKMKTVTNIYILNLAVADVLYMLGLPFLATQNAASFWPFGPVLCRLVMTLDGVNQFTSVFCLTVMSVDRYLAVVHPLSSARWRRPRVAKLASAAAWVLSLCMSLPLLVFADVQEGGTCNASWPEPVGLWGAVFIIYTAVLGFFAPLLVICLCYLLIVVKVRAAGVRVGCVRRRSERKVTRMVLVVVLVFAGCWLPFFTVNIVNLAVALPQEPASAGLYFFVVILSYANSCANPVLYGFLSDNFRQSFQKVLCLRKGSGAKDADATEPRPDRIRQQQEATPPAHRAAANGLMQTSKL
hsst1, sequence (P30872 whole entry): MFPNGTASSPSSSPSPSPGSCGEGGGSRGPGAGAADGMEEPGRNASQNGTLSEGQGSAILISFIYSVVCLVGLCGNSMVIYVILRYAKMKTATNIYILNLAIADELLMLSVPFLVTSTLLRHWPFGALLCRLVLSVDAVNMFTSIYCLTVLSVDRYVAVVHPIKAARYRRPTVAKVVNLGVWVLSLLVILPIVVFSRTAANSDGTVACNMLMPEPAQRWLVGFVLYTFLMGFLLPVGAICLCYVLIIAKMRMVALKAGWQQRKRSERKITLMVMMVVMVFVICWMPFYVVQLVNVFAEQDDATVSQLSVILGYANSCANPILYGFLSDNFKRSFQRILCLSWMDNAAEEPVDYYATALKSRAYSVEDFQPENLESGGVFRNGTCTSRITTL
Method for hsst1: The binding assays may be carried out as disclosed hereunder using membranes from cell lines expressing selectively and stably hsst1, hsst2, hsst3, hsst4 or hsst5, e.g. CHO or COS cells.
Membranes prepared from hsst selective cell lines, e.g. CHO or COS cells stably expressing hsst1 or hsst2 or hsst3 or hsst4 or hsst5 are incubated in triplicate in a total volume of 300 μl at 22° C. for 30 min with increasing concentrations of [^125I-Tyr^11]-SRIF-14 in 10 mmol/l Hepes buffer (pH 7.6) containing 0.5% BSA. The incubation is terminated by rapid filtration and the filters are counted in a counter. Specific binding is total binding minus non-specific binding in the presence of 1 μmol/l somatostatin-14. The experiments are carried out in triplicate. The affinity constant (KD) and number of binding sites are calculated using appropriate statistics and graphical programs.

Regarding `NCCCC[C@@H]1NC(=O)[C@@H](Cc2c[nH]c3ccccc23)NC(=O)[C@H](c2ccccc2)NC(=O)[C@@H]2C[C@@H](OC(=O)NCCN)CN2C(=O)[C@H](Cc2ccccc2)NC(=O)[C@H](Cc2ccc(OCc3ccccc3)cc2)NC1=O` [Compound A, cyclo[{4-(NH2—C2H4—NH—CO—O—)Pro}-Phg-DTrp-Lys-Tyr(4-Bzl)-Phe]] (cyclo([Hyp]([CO-Ethylenediamine])[Phg][dW]KY(Bn)F)), in the series on carotid artery neointima, the Neointimal thickening result is “inhibits neointimal thickening significantly”. For the same compound, in the series with kidney allograft, the “Chronic rejection related vascular remodelling and graft infiltration” value is “reduction in chronic rejection related vascular remodelling and graft infiltration”. In addition, the IGF-1 levels entry in the series with kidney allograft is “marked and persistent drop of IGF-1 levels”. In the series on kidney allograft, the “Organ perfusion (MRI)” value is reported as “improved organ perfusion”. Moreover, the IC50 at hsst5 is 0.16 nM; at hsst1 it was 9.3 nM; at hsst4, above 100 nM; at hsst3, 1.5 nM; at hsst2, 1 nM; in the series on cultured pituitary cells, 0.4 nM. For the same compound, the Blood vessel formation entry with blood vessel formation is on record as “inhibits blood vessel formation”. In the series with IGF-1 plasma levels (after 14 days of treatment with 10 μg/kg/h, osmotic pump s.c., male Lewis rats), the “Inhibition of IGF-1 plasma levels” value is “more than 60%”. Moreover, in the series with IGF-1 plasma levels (rat recipients of aorta or kidney allografts, continuous infusion 10 μg/kg/h up to 126 days), the “Lowering of IGF-1 plasma levels on continuous treatment” value is “significant and persistent lowering of IGF-1 plasma levels”. Further, the “Displacement of 125I-Tyr-Ala-hexarelin” value in [1] is “displaces ^125I-Tyr-Ala-hexarelin”. Besides, the “Effect on insulin secretion” value in the series with insulin secretion was “inhibits insulin secretion”. Moreover, the half-life in the series “Plasma half-life” lay in the range of 15 to 30 h. The “Vascular remodelling and graft infiltration” value in the series with heart allograft is given as “beneficial effects on vascular remodelling as well as in graft infiltration”. For the same compound, the “Inhibition of GH” value in the series with GH is “potent and efficacious inhibition of GH”. Moreover, the Antidiabetic/insulin-sensitizing effect entry in series [2] is on record as “potent antidiabetic/insulin-sensitizing effect”. Moreover, the “Mean basal ID50, inhibition of GH secretion” value in the series with growth hormone release came to 5.5 µg/kg. Besides, the Neointimal formation entry with carotid artery grafts is reported as “inhibits neointimal formation”.
